Assay results published in PubChem BioAssay AID1963848 (Molecular Pharmacology Branch, DTP, NCI, 2024).

Tested on: 379773-124-R-J2-PDC spheroid viability
Assay: Anticancer human tumor 379773-124-R-J2-PDC patient-derived endometrial carcinoma cell line growth inhibition [POLQ]
Details: spheroids with HUVEC and MSC; for IC50: curve of first compound; for viability, T/C: stronger effect = lower value; active = viability on the fitted dose curve at most 10% of control; inactive = the rest
Procedure, shortened: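 Patient-derived tumour cells were co-cultured with HUVEC and mesenchymal stem cells as multicellular spheroids at 37 °C. They were treated with POLQ inhibitors (novobiocin, ART-558, RP6685) alone or combined with other agents. Top concentrations were at or near clinical Cmax (otherwise 10 microM; SN-38 at 1 microM), decreasing in half-log steps.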

[1] = second compound 0.0316 µM, first compound 0.0316 µM
[2] = second compound 0.0316 µM, first compound 0.1 µM
[3] = second compound 0.0316 µM, first compound 0.316 µM
[4] = second compound 0.0316 µM, first compound 1 µM
[5] = second compound 0.0316 µM, first compound 3.16 µM
[6] = second compound 0.0316 µM, first compound 10 µM
[7] = second compound 0.1 µM, first compound 0.0316 µM
[8] = second compound 0.1 µM, first compound 0.1 µM
[9] = second compound 0.1 µM, first compound 0.316 µM
[10] = second compound 0.1 µM, first compound 1 µM
[11] = second compound 0.1 µM, first compound 3.16 µM
[12] = second compound 0.1 µM, first compound 10 µM
[13] = second compound 0.316 µM, first compound 0.0316 µM
[14] = second compound 0.316 µM, first compound 0.1 µM
[15] = second compound 0.316 µM, first compound 0.316 µM
[16] = second compound 0.316 µM, first compound 1 µM
[17] = second compound 0.316 µM, first compound 3.16 µM
[18] = second compound 0.316 µM, first compound 10 µM
[19] = second compound 1 µM, first compound 0.0316 µM
[20] = second compound 1 µM, first compound 0.1 µM
[21] = second compound 1 µM, first compound 0.316 µM
[22] = second compound 1 µM, first compound 1 µM
[23] = second compound 1 µM, first compound 3.16 µM
[24] = second compound 1 µM, first compound 10 µM
[25] = second compound 3.16 µM, first compound 0.0316 µM
[26] = second compound 3.16 µM, first compound 0.1 µM
[27] = second compound 3.16 µM, first compound 0.316 µM
[28] = second compound 3.16 µM, first compound 1 µM
[29] = second compound 3.16 µM, first compound 3.16 µM
[30] = second compound 3.16 µM, first compound 10 µM
[31] = second compound 10 µM, first compound 0.0316 µM
[32] = second compound 10 µM, first compound 0.1 µM
[33] = second compound 10 µM, first compound 0.316 µM
[34] = second compound 10 µM, first compound 1 µM
[35] = second compound 10 µM, first compound 3.16 µM
[36] = second compound 10 µM, first compound 10 µM
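Also: spheroids exposed to drugs for seven days before readout.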
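For viability, T/C in this document: percent viability relative to DMSO vehicle control taken as 100%.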

COc1cc(C2c3cc4c(cc3C(OC3OC5COC(C)OC5C(O)C3O)C3COC(=O)C23)OCO4)cc(OC)c1O (stereo unspecified) + Nc1ccc(C#CCN(C(=O)Cc2ncc(C(F)(F)F)cc2C(F)(F)F)c2ccc(F)cc2)nn1
1.5 µM: IC50 (second compound 0.0316 µM)
1.57 µM: IC50 (second compound 0.1 µM)
1.24 µM: IC50 (second compound 1 µM) | IC50 (second compound 10 µM)
inactive: viability, T/C [1] 95.4% | viability, T/C [2] 116% | viability, T/C [3] 81.9% | viability, T/C [4] 70.4% | viability, T/C [5] 17% | viability, T/C [6] 15.5% | viability, T/C [7] 98.8% | viability, T/C [8] 86% | viability, T/C [9] 90% | viability, T/C [10] 70.2% | viability, T/C [11] 18.6% | viability, T/C [12] 14.1% | viability, T/C [13] 92.5% | viability, T/C [14] 116% | viability, T/C [15] 97% | viability, T/C [16] 67.4% | viability, T/C [17] 15.9% | viability, T/C [18] 16.8% | viability, T/C [19] 99.1% | viability, T/C [20] 96.2% | viability, T/C [21] 78.4% | viability, T/C [22] 62.2% | viability, T/C [23] 17.3% | viability, T/C [24] 13.8% | viability, T/C [25] 94.1% | viability, T/C [26] 96.1% | viability, T/C [27] 81.7% | viability, T/C [28] 65.1% | viability, T/C [29] 18.2% | viability, T/C [30] 13.6% | viability, T/C [31] 98% | viability, T/C [32] 92.7% | viability, T/C [33] 98% | viability, T/C [34] 57.6% | viability, T/C [35] 16.9% | viability, T/C [36] 16.3%
1.49 µM: IC50 (second compound 0.316 µM)
1.41 µM: IC50 (second compound 3.16 µM)

O=C(c1cc(Cc2n[nH]c(=O)c3ccccc23)ccc1F)N1CCN(C(=O)C2CC2)CC1 + Nc1ccc(C#CCN(C(=O)Cc2ncc(C(F)(F)F)cc2C(F)(F)F)c2ccc(F)cc2)nn1
inactive: viability, T/C [1] 87.2% | viability, T/C [2] 93.1% | viability, T/C [3] 82.5% | viability, T/C [4] 89.9% | viability, T/C [5] 87.8% | viability, T/C [6] 47.5% | viability, T/C [7] 85.1% | viability, T/C [8] 94.2% | viability, T/C [9] 94% | viability, T/C [10] 83% | viability, T/C [11] 91.1% | viability, T/C [12] 45.5% | viability, T/C [13] 89.8% | viability, T/C [14] 90% | viability, T/C [15] 92.7% | viability, T/C [16] 91.3% | viability, T/C [17] 82% | viability, T/C [18] 50.6% | viability, T/C [19] 95.1% | viability, T/C [20] 100% | viability, T/C [21] 94% | viability, T/C [22] 85.2% | viability, T/C [23] 83.1% | viability, T/C [24] 48.4% | viability, T/C [25] 88.1% | viability, T/C [26] 88.7% | viability, T/C [27] 84.7% | viability, T/C [28] 93.2% | viability, T/C [29] 89.8% | viability, T/C [30] 52.2% | viability, T/C [31] 87.8% | viability, T/C [32] 89.2% | viability, T/C [33] 89.3% | viability, T/C [34] 96.5% | viability, T/C [35] 84.5% | viability, T/C [36] 49.5%
9.98 µM: IC50 (second compound 10 µM)
9.76 µM: IC50 (second compound 1 µM)
> 10 µM: IC50 (second compound 0.316 µM) | IC50 (second compound 3.16 µM)
8.88 µM: IC50 (second compound 0.1 µM)
9.3 µM: IC50 (second compound 0.0316 µM)

O=c1[nH]cc(F)c(=O)[nH]1 + Nc1ccc(C#CCN(C(=O)Cc2ncc(C(F)(F)F)cc2C(F)(F)F)c2ccc(F)cc2)nn1
inactive: viability, T/C [1] 93.1% | viability, T/C [2] 93% | viability, T/C [3] 99.6% | viability, T/C [4] 85.2% | viability, T/C [5] 78.1% | viability, T/C [6] 55.7% | viability, T/C [7] 89.2% | viability, T/C [8] 98.1% | viability, T/C [9] 95.1% | viability, T/C [10] 80.4% | viability, T/C [11] 78.8% | viability, T/C [12] 59.6% | viability, T/C [13] 96.1% | viability, T/C [14] 98.1% | viability, T/C [15] 98.2% | viability, T/C [16] 94.7% | viability, T/C [17] 74.4% | viability, T/C [18] 62% | viability, T/C [19] 92.3% | viability, T/C [20] 85.3% | viability, T/C [21] 95.3% | viability, T/C [22] 87.2% | viability, T/C [23] 75.9% | viability, T/C [24] 51.3% | viability, T/C [25] 94.1% | viability, T/C [26] 83% | viability, T/C [27] 91.3% | viability, T/C [28] 82.4% | viability, T/C [29] 74.1% | viability, T/C [30] 57.7% | viability, T/C [31] 87.4% | viability, T/C [32] 88.2% | viability, T/C [33] 93.5% | viability, T/C [34] 90.2% | viability, T/C [35] 63.1% | viability, T/C [36] 57.6%
> 10 µM: IC50 (second compound 0.0316 µM) | IC50 (second compound 0.1 µM) | IC50 (second compound 0.316 µM) | IC50 (second compound 1 µM) | IC50 (second compound 3.16 µM) | IC50 (second compound 10 µM)
